The results in this text go back to patent US10238713B2, “Cyclic tetrapeptides and therapeutic applications thereof” (LODZ UNIVERSITY OF TECHNOLOGY, priority 2010, dated 2019).

SMILES strings stand for the structures. Non-standard residues stand in square brackets, D forms with d. Residues, ends and D or L forms follow the SMILES beside them. β3hF = N[C@H](CC(=O)O)Cc1ccccc1

Series [1] relates to mouse splenocyte cultures, humoral immune response to SRBC. The series is described as follows: Secondary humoral immune response in vitro to SRBC (AFC number). In kind it is cell-based. The procedure:
Mice were sensitized intraperitoneally with 0.2 ml of 5% (v/v) SRBC suspension. After four days spleens from these mice were isolated and single cell suspensions prepared by homogenization in PBS solution. After washing the cells in PBS by centrifugation, the cells were re-suspended in the culture medium at a density of 5×10^6 cells/ml. The cells were subsequently distributed to 24-well culture plates in 1 ml aliquots and 0.05 ml of 0.005% SRBC was added as the antigen to each well. The compounds were added to the cultures at the beginning of the four-day incubation period at concentration ranges of 1-100 μg/ml. The number of antibody-forming cells (AFC) in the cultures was determined using a method of local hemolysis in agar gel according to Mishell et al., J Exp Med, 1967, 126, 423-442.

The subject of series [2] is concanavalin A-induced mouse splenocyte proliferation. The series is described as follows: Proliferative response of splenocytes to concanavalin A (MTT). In kind it is cell-based. As to conditions: 50-100 μg/ml. The procedure:
Spleens were pressed against a plastic screen into 0.83% NH4Cl solution to lyse erythrocytes (5 min incubation at room temperature). The cells were then washed twice with Hanks' medium, passed through glass wool column to remove debris, and re-suspended in the culture medium, referred to below as the “culture medium”, consisting of RPMI-1640, supplemented with 10% of fetal calf serum, L-glutamine, sodium pyruvate, 2-mercaptoethanol, streptomycin and penicillin (100 μg/ml). The cells were then distributed into 96-well flat-bottom tissue culture plates (Nunc) at a density of 2×10^5 cells/100 μl/well. Con A (2.5 μg/ml) was added to induce cell proliferation. The compounds were added to the cultures at doses of 1-100 μg/ml. After a three-day incubation, cell proliferation was determined using the colorimetric MTT method (Hansen M B, J Immunol Methods, 1989, 119, 203-210). The results were presented as the mean optical density (OD) at 550 nm ±SE from quadriplicate determinations (wells).

For another series, the system named is splenocytes. The experiment in a line: Toxicity test on splenocytes (24 h, MTT). In kind it is cell-based, mouse. As to conditions: 100 μg/ml (printed 100 μg/m for I-C). The protocol:
Cell survival was determined by MTT colorimetric method. The results were presented as mean optical density (OD) at 550 nm from 4 wells. The viability of cells in respective compound concentrations was compared to appropriate DMSO control groups (100% survival), corresponding to respective compound concentrations.

For series [3], the system named is human peripheral mononuclear blood cells (PBMC). The series is described as follows: Cytotoxic test on human blood mononuclear cells (24 h, colorimetric). The note with it: at 40 μg/ml, FIG. 5.
Experimental: For evaluation of toxicity of the compound of formula I-A, human peripheral mononuclear blood cells (PBMC) were chosen. This fraction consists of approximately 80% lymphocytes and 20% monocytes. As a reference compound, cyclolinopeptide (CLA) was selected since the compound of formula I-A shares a part of the sequence of CLA.
After centrifugation at 1200×g for 20 min, the mononuclear cells from the interphase were harvested and washed 3 times with PBS. The cells were re-suspended in a standard culture medium consisting of RPMI-1640 medium, L-glutamine, sodium pyruvate, 2-mercaptoethanol, 100 μg/ml each of streptomycin and penicillin, and 10% fetal calf serum. The cells were distributed to in 96-well flat-bottom culture plates at density of 2×10^5/100 μl. The compounds (formula I-A and CLA) were initially dissolved in DMSO (5 mg/500 μl) and subsequently in the culture medium. DMSO, appropriately diluted with the culture medium, was used as a control. After 24 h incubation in a cell culture incubator, cell viability was determined by a colorimetric method (Hansen et al., J Immunol Methods, 1989, 119, 203-210).

Turning to `O=C1C[C@H](Cc2ccccc2)NC(=O)[C@@H]2CCCN2C(=O)[C@@H]2CCCN2C(=O)C[C@H](Cc2ccccc2)N1` [I-C] (cyclo(PP[β3hF][β3hF])), the entries for the “suppression of in vitro humoral immune response to SRBC” value in series [1] (10 μg/m as printed) and in series [1] (100 μg/m as printed) were 33% and 80%, respectively. The “effect on concanavalin A-induced mouse splenocyte proliferation” value in series [2] is on record as “strong inhibitory effect”. In the series with splenocytes, the toxicity to splenocytes was 70%.

As for `CC[C@H](C)[C@@H]1NC(=O)[C@H](CC(C)C)NC(=O)[C@H](Cc2ccccc2)NC(=O)[C@H](Cc2ccccc2)NC(=O)[C@@H]2CCCN2C(=O)[C@@H]2CCCN2C(=O)[C@H](C(C)C)NC(=O)[C@H](CC(C)C)NC(=O)[C@H]([C@@H](C)CC)NC1=O` [CLA, Cyclolinopeptide A] (cyclo(FFLIILVPP)), the “cytotoxic effect on PBMC” value in series [3] was “statistically significant cytotoxic effect”.
